The text below walks through data of patent US20150342954A1, “2-BENZYL, 3-(PYRIMIDIN-2-YL) SUBSTITUTED PYRAZOLES USEFUL AS SGC STIMULATORS” (IRONWOOD PHARMACEUTICALS, INC., priority 2011, published 2015).

pEC50: −log10 of the molar value. Read-outs that look alike come from different tables or passages of the source.

The target of the assay is T1, soluble guanylate cyclase (sGC) (Homo sapiens, UniProt Q02108+Q02153).
T1 construct: endogenously expressing soluble guanylate cyclase (sGC); endogenous in cells; host or cells: HEK293
T1 sequence (Q02153 1-619): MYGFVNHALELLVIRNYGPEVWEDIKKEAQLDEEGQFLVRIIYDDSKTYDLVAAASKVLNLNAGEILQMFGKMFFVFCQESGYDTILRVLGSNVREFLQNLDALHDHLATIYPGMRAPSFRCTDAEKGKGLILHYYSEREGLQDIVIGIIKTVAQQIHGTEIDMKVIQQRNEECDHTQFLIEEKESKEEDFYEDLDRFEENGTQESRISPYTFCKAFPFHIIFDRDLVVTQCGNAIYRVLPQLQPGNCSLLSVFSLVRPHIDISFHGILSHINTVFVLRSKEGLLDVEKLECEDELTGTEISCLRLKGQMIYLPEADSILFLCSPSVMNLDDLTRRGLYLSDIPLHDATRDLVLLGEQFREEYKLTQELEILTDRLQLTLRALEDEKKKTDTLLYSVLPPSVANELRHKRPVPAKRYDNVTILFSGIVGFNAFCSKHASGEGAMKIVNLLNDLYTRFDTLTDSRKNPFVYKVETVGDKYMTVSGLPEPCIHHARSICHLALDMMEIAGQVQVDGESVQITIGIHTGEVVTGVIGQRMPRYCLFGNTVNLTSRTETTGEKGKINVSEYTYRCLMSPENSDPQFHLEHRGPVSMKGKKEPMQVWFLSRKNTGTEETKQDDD
T1 sequence (Q02108 1-690): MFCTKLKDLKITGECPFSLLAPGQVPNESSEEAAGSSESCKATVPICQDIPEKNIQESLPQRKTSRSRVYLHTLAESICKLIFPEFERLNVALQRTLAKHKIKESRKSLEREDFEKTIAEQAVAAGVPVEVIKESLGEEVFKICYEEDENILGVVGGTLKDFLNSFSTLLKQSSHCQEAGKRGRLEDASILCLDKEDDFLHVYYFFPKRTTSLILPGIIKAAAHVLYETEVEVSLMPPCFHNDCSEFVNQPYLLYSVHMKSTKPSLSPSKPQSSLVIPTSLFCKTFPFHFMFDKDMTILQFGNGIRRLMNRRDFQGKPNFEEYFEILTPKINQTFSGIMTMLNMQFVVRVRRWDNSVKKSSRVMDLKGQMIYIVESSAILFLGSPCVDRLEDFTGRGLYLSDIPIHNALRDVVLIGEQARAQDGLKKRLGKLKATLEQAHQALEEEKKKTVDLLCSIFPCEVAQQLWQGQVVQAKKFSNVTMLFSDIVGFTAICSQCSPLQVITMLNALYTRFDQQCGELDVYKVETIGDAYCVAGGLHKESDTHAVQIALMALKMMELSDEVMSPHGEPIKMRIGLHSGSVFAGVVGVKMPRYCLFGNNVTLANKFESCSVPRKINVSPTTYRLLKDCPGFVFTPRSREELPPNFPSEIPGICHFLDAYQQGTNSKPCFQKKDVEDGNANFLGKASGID
Kind of assay: sGC-HEK-cGMP assay (run with SNP incubation). Format: cell-based. The conditions noted are these: for Emax: 10 μM SNP, 100% = 30 μM BAY 41-2272 with 10 μM SNP, read-out: HEK assay Emax-unconstrained (Percent); for HEK MEC-10: concentration that would elicit 10% of the Emax in the presence of 10 μM SNP; for pEC50: in the presence of 10 μM SNP. The method, then: Biological Activity Measurement by the sGC-HEK-cGMP Assay
(Assay Run with SNP Incubation)
Human embryonic kidney cells (HEK293), endogenously expressing soluble guanylate cyclase (sGC), were used to evaluate the activity of test compounds. Compounds stimulating the sGC receptor should cause an increase in the intracellular concentration of cGMP. HEK 293 cells were seeded in Dulbecco's Modification of Eagle's Medium supplemented with fetal bovine serum (10% final) and L-glutamine (2 mM final) in a 2004 volume at a density of 1×10^5 cells/well in a poly-D-lysine coated 96 well flat bottom plate and grown overnight at 37° C. Medium was aspirated and cells were washed with 1× Hank's Buffered Saline Salt Solution (2004). Cells were then incubated for 15 minutes at 37° C. with 0.5 mM 3-isobutyl-1-methylxanthine (2004). Test article and sodium nitroprusside were then added to the assay mixture (24 each) and incubated at 37° C. for 10 minutes. After the 10 minute incubation, the assay mixture was aspirated and 0.1M HCl (2004) was added to the cells. The plate was incubated at 4° C. for 30 minutes in the 0.1M HCl to stop the reaction and lysed the cells. The plates were then centrifuged at 1,200 g for 5 minutes at room temperature. Supernatants were collected and transferred to a new flat bottom 96 well plate for analysis. Vehicle controls were carried out using DMSO (1%). A known sGC stimulator, BAY 41-2272, was used as the positive control. Samples were diluted with an equal volume of 1 M Ammonium Acetate (pH 7) to neutralize samples for better chromatography. A 2×cGMP standard curve was prepared in 0.1 M HCl and then diluted with an equal volume of 1 M Ammonium Acetate, with the following final concentrations in nM: 1024, 512, 256, 128, 64, 32, 16, 8, 4, 2, 1.cGMP concentrations were determined from each sample using the LC/MS conditions (Table 2 below) and calculated standard curve. EC50 values were calculated from concentration-response curves generated with GraphPad Prism Software.

[1] abbreviates: Table 3A, top of concentration-response curve not fitted to 100%.
Where [2] appears, read: Table 3D, read-out: HEK assay EC50.
The mark [3] stands for this setting: top of concentration-response curve not fitted to 100%, Table 3D, read-out: HEK assay EC50-unconstrained.
Where [4] appears, read: Table 3B, top of concentration-response curve not fitted to 100%.
The mark [5] stands for this setting: Table 3E, read-out: HEK assay EC50.
The mark [6] stands for this setting: top of concentration-response curve not fitted to 100%, Table 3E, read-out: HEK assay EC50-unconstrained.
Setting [7] is: Table 3C, top of concentration-response curve not fitted to 100%.
Setting [8] is: Table 3F, read-out: HEK assay EC50.
The mark [9] stands for this setting: top of concentration-response curve not fitted to 100%, Table 3F, read-out: HEK assay EC50-unconstrained.

The Emax is the greatest response seen or fitted, relative to the assay's reference. The term pEC50 denotes −log10 of the EC50, conventionally taken in molar units. As to `Fc1ccccc1Cn1nc(-c2ncc(F)c(Cl)n2)cc1-c1ccon1` [Compound 30, 3-(3-(4-chloro-5-fluoropyrimidin-2-yl)-1-(2-fluorobenzyl)-1H-pyrazol-5-yl)isoxazole], under setting [1], the Emax lay within 60 to 80%. In addition, for the setting “Table 3D”, the “HEK MEC-10” value is reported as “D (1 to <10 μM)”. Further, the pEC50 runs as follows: under setting [2], greater than 4.70; under setting [3], 5.30 to 6.00.

Turning to `N#CC1(C(=O)Nc2cnc(-c3cc(-c4ccon4)n(Cc4cccc(F)c4F)n3)nc2N)CC1` [Compound 36], the Emax under setting [1] was in the range of 40 to 60%. For the same molecule, where the note is “Table 3D”, the “HEK MEC-10” value is “D (1 to <10 μM)”. In addition, the pEC50 by setting is: under setting [2], greater than 4.70; under setting [3], 6.30 to 8.00.

With `Nc1ccnc(-c2cc(-c3ccon3)n(Cc3cccc(F)c3F)n2)n1` [Compound 37], the maximal response (Emax) under setting [1] was in the range of 80 to 100%. Moreover, the “HEK MEC-10” value (Table 3D) is on record as “C (0.1 to <1 μM)”. In addition, the pEC50 is, setting by setting: under setting [2], 4.40 to 4.70; under setting [3], 4.30 to 5.00.

Take `Oc1nc(-c2cc(-c3cocn3)n(Cc3ccccc3F)n2)ncc1F` [Compound 48]: under setting [1], the Emax is 60 to 80%. For the setting “Table 3D”, the “HEK MEC-10” value is listed as “C (0.1 to <1 μM)”. Besides, the negative logarithm of the EC50 (pEC50) was greater than 4.70 under setting [2] and 5.30 to 6.00 under setting [3].

In the case of `Fc1ccccc1Cn1nc(-c2ncc(Br)c(OCc3ccccc3)n2)cc1-c1ccon1` [Compound 50], the pEC50 under setting [2] was 2.15 to 2.92.

Regarding `Oc1nc(-c2cc(-c3ccon3)n(Cc3cccc(Cl)c3F)n2)ncc1Cl` [Compound 82], the Emax under setting [4] was in the range of 40 to 60%. In addition, where the note is “Table 3E”, the “HEK MEC-10” value is recorded as “B (0.01 to <0.1 μM)”. The pEC50 by setting is: under setting [5], 4.22 to 4.40; under setting [6], 6.30 to 8.00.

Turning to `Nc1nc(-c2cc(-c3ccon3)n(Cc3ccccc3F)n2)ncc1N1CC(C(F)(F)F)OC1=O` (centres unmarked) [Compound 83, 3-(4-amino-2-(1-(2-fluorobenzyl)-5-(isoxazol-3-yl)-1H-pyrazol-3-yl)pyrimidin-5-yl)-5-(trifluoromethyl)oxazolidin-2-one], the pEC50 by setting is: under setting [5], 4.00 to 4.22; under setting [6], 6.00 to 6.30.

`Oc1nc(-c2cc(-c3ccco3)n(Cc3ccccc3F)n2)ncc1F` [Compound 90]: under setting [4], the Emax was in the range of 40 to 60%. Also, under setting [6], the pEC50 is 6.30 to 8.00.

`Nc1nc(-c2cc(-c3ccon3)n(Cc3ccccc3F)n2)ncc1NC(=O)C(Cl)(Cl)Cl` [Compound 98]: the Emax under setting [7] was 60 to 80%. Besides, the “HEK MEC-10” value (Table 3F) was “B (0.01 to <0.1 μM)”. For the same molecule, the pEC50 is greater than 4.70 under setting [8] and 6.30 to 8.00 under setting [9].

As for `Nc1nc(-c2cc(-c3ccon3)n(Cc3cccc(F)c3F)n2)ncc1NC(=O)c1ccc(C(F)(F)F)cc1` [Compound 101], the Emax under setting [7] lay within 80 to 100%. Further, under “Table 3F”, the “HEK MEC-10” value is “A (0.001 to <0.01 μM)”. Also, the pEC50 under setting [8] was greater than 4.70 and the pEC50 under setting [9] was 6.30 to 8.00.

`CN(C)Cc1ccc(C(=O)Nc2cnc(-c3cc(-c4ccon4)n(Cc4cccc(F)c4F)n3)nc2N)cc1` [Compound 102]: under setting [7], the Emax fell in the range of 60 to 80%. In addition, for the setting “Table 3F”, the “HEK MEC-10” value was “C (0.1 to <1 μM)”. Also, the pEC50 by setting is: under setting [8], greater than 4.70; under setting [9], 5.30 to 6.00.

As for `Nc1nc(-c2cc(-c3ccon3)n(Cc3cccc(F)c3F)n2)ncc1NC(=O)c1ccc[nH]1` [Compound 103], the Emax under setting [7] lay in the range of 80 to 100%. The “HEK MEC-10” value (Table 3F) is listed as “A (0.001 to <0.01 μM)”. Further, the pEC50 is greater than 4.70 under setting [8] and 6.30 to 8.00 under setting [9].

As for `CN(C)Cc1cccc(C(=O)Nc2cnc(-c3cc(-c4ccon4)n(Cc4cccc(F)c4F)n3)nc2N)c1` [Compound 104], the Emax under setting [7] was in the range of 40 to 60%. In addition, the “HEK MEC-10” value (Table 3F) is listed as “C (0.1 to <1 μM)”. The pEC50 by setting is: under setting [8], greater than 4.70; under setting [9], 5.30 to 6.00.

Take `Nc1nc(-c2cc(-c3ccon3)n(Cc3cccc(F)c3F)n2)ncc1NC(=O)c1cc[nH]c1` [Compound 105]: under setting [7], the Emax was 60 to 80%. For the setting “Table 3F”, the “HEK MEC-10” value is given as “B (0.01 to <0.1 μM)”. Also, the pEC50 is, setting by setting: under setting [8], greater than 4.70; under setting [9], 6.00 to 6.30.

Consider `Nc1nc(-c2cc(-c3ccon3)n(Cc3cccc(F)c3F)n2)ncc1NC(=O)c1ccn[nH]1` [Compound 106], for which, under setting [7], the Emax is 80 to 100%. In addition, the “HEK MEC-10” value (Table 3F) is “D (1 to <10 μM)”. Moreover, the pEC50 is, setting by setting: under setting [8], greater than 4.70; under setting [9], 5.00 to 5.30.

`Nc1nc(-c2cc(-c3ccon3)n(Cc3cccc(F)c3F)n2)ncc1NC(=O)C12CC3CC(CC(O)(C3)C1)C2` [Compound 107]: under setting [7], the Emax fell in the range of 40 to 60%. Also, the “HEK MEC-10” value (Table 3F) is reported as “C (0.1 to <1 μM)”. In addition, the pEC50 by setting is: under setting [8], greater than 4.70; under setting [9], 5.30 to 6.00.

With `Nc1nc(-c2cc(-c3ccon3)n(Cc3ccccc3F)n2)ncc1NC(=O)CCC(F)(F)F` [Compound 111], the Emax under setting [7] was 60 to 80%. Also, the “HEK MEC-10” value (Table 3F) is “B (0.01 to <0.1 μM)”. Also, the pEC50 reads like this: under setting [8], greater than 4.70; under setting [9], 6.30 to 8.00.

Consider `N#Cc1nc(-c2cc(-c3ccon3)n(Cc3ccccc3F)n2)ncc1F` [Compound 115], for which the Emax under setting [7] was 20 to 40%. Also, the “HEK MEC-10” value (Table 3F) was “D (1 to <10 μM)”. Moreover, the pEC50 by setting is: under setting [8], 4.22 to 4.40; under setting [9], 5.30 to 6.00.

With `COc1nc(-c2cc(-c3ccon3)n(Cc3ccccc3F)n2)nc(Cl)c1F` [Compound 116], the Emax under setting [7] lay within 20 to 40%. Further, the “HEK MEC-10” value (Table 3F) was “D (1 to <10 μM)”. Also, the pEC50 under setting [8] was 4.00 to 4.22.
